According to article PMC8222254, “Self-assembly of an anion receptor with metal-dependent kinase inhibition and potent in vitro anti-cancer properties” (Nature Communications, 2021):
Values joined by “and” are separate entries in the source; they are usually repeats but may differ in a detail not shown here. Equal values may be shown once.

Experiments:
Experiment in all cases: Kinase inhibition screen, cell-free 33P ATP assay at 10 μM
Assay type in all cases: biochemical
[1] = target: T1, 140 purified human kinases (Homo sapiens, UniProt P52564)
T1 sequence (P52564 1-334): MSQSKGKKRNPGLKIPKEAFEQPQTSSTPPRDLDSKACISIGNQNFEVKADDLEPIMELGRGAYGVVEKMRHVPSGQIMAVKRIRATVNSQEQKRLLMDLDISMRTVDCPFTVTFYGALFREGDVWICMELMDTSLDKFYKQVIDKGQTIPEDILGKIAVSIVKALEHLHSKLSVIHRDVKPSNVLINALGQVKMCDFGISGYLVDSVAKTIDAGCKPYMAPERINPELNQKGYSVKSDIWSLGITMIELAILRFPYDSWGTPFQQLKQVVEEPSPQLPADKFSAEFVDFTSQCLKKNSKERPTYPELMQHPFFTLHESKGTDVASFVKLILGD
In short: (§1)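 Each complex tested in duplicate at 10 μM; cell-free radiometric assay using ^33P ATP on purified enzymes. Hits mapped by HGNC symbol onto the kinome tree.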

[2] = target: 140 purified human kinases (Homo sapiens, UniProt Q16539); settings: p38a MAPK
In short: as §1

[3] = target: T2, 140 purified human kinases (Homo sapiens, UniProt Q16832)
T2 sequence (Q16832 22-855): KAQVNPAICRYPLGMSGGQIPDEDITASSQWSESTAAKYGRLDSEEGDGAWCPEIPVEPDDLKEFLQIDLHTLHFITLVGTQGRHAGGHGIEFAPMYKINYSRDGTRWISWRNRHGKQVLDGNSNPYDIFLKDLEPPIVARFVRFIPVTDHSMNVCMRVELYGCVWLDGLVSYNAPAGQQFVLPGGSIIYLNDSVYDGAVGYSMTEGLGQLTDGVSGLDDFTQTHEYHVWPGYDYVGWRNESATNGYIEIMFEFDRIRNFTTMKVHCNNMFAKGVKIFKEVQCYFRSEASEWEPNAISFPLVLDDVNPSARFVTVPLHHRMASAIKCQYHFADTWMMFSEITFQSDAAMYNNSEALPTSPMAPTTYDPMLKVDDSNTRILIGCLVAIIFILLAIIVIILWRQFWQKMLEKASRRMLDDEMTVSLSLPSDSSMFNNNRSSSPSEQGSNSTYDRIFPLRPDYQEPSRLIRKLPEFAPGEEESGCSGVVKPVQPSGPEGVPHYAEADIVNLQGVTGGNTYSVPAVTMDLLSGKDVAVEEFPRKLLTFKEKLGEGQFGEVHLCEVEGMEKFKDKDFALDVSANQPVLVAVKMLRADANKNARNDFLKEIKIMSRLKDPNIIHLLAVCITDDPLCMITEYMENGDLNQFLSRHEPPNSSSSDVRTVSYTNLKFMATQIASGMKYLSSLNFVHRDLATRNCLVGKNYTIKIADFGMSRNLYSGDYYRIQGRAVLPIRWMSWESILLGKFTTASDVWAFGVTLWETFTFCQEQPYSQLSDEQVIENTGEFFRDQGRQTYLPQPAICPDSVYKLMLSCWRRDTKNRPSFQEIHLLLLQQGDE
In short: as §1

[4] = target: 140 purified human kinases (Homo sapiens, UniProt Q13882); settings: BRK
In short: as §1

[5] = target: 140 purified human kinases (Homo sapiens, UniProt P08069); settings: IGF-1R
In short: as §1

[6] = target: 140 purified human kinases (Homo sapiens, UniProt P24941); settings: CDK2-Cyclin A
In short: as §1

[7] = target: 140 purified human kinases (Homo sapiens, UniProt Q9NQU5)
In short: as §1

[8] = target: 140 purified human kinases (Homo sapiens, UniProt Q9Y2K2)
In short: as §1

140 purified human kinases (Homo sapiens, UniProt Q16539), sequence (Q16539 whole entry): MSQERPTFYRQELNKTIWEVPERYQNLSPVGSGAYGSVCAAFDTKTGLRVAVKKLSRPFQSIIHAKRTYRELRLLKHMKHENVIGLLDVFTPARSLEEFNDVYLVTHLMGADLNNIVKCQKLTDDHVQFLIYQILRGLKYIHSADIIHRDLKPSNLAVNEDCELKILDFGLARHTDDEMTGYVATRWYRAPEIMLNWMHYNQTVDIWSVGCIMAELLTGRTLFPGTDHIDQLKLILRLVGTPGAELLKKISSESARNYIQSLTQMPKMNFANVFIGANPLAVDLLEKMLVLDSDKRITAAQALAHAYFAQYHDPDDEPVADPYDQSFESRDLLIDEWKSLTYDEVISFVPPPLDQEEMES
140 purified human kinases (Homo sapiens, UniProt P08069), sequence (P08069 31-1367): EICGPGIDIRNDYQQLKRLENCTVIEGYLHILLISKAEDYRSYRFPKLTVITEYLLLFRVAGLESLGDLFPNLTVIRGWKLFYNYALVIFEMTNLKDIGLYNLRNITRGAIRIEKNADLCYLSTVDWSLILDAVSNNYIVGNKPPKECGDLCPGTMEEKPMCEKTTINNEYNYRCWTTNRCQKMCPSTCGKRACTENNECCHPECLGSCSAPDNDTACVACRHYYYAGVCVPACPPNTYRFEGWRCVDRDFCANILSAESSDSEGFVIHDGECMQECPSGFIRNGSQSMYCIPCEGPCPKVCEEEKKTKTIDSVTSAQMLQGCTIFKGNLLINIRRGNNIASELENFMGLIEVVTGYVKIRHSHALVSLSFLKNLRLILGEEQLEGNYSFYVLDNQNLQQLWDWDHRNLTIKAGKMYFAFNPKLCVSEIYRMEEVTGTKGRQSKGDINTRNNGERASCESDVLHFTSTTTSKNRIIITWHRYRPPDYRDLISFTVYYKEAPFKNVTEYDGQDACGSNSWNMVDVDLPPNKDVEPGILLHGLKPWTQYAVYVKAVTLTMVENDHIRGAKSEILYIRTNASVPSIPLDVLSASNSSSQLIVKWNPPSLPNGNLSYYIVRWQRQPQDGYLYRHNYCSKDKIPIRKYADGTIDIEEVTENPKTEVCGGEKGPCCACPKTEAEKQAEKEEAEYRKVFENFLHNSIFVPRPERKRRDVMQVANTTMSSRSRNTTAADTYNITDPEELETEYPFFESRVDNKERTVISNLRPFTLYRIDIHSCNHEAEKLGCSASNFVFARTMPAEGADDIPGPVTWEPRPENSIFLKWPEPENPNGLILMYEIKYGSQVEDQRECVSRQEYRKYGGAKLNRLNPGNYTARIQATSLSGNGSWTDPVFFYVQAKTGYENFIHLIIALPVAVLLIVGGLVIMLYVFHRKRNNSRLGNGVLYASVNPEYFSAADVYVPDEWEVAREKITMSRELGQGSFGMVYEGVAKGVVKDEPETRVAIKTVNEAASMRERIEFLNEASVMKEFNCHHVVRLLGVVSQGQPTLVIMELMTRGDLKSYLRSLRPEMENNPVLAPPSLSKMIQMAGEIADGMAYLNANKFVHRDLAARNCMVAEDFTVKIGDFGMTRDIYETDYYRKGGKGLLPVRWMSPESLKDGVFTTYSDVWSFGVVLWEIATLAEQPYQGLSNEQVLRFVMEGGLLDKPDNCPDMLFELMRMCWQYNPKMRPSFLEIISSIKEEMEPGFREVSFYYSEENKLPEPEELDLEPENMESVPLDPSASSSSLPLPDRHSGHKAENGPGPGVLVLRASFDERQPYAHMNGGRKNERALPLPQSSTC
140 purified human kinases (Homo sapiens, UniProt Q9NQU5), sequence (Q9NQU5 whole entry): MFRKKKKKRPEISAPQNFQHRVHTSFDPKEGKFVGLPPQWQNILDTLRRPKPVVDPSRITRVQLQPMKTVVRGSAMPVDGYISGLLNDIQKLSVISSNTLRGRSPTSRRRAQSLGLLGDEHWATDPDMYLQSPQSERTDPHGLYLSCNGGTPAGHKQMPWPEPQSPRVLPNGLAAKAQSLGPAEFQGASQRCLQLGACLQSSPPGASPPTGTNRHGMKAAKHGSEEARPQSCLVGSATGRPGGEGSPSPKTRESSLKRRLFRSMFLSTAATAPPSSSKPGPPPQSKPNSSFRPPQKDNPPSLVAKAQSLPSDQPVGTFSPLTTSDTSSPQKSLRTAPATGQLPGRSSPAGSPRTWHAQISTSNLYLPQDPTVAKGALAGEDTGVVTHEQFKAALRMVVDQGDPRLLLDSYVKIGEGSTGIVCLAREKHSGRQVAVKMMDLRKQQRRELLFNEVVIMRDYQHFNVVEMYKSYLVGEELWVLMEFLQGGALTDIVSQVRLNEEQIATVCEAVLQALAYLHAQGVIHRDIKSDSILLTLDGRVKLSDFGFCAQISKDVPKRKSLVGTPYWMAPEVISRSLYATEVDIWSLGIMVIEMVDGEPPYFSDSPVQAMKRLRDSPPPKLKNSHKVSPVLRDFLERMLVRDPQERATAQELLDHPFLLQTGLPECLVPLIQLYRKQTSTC
140 purified human kinases (Homo sapiens, UniProt Q9Y2K2), sequence (Q9Y2K2 whole entry): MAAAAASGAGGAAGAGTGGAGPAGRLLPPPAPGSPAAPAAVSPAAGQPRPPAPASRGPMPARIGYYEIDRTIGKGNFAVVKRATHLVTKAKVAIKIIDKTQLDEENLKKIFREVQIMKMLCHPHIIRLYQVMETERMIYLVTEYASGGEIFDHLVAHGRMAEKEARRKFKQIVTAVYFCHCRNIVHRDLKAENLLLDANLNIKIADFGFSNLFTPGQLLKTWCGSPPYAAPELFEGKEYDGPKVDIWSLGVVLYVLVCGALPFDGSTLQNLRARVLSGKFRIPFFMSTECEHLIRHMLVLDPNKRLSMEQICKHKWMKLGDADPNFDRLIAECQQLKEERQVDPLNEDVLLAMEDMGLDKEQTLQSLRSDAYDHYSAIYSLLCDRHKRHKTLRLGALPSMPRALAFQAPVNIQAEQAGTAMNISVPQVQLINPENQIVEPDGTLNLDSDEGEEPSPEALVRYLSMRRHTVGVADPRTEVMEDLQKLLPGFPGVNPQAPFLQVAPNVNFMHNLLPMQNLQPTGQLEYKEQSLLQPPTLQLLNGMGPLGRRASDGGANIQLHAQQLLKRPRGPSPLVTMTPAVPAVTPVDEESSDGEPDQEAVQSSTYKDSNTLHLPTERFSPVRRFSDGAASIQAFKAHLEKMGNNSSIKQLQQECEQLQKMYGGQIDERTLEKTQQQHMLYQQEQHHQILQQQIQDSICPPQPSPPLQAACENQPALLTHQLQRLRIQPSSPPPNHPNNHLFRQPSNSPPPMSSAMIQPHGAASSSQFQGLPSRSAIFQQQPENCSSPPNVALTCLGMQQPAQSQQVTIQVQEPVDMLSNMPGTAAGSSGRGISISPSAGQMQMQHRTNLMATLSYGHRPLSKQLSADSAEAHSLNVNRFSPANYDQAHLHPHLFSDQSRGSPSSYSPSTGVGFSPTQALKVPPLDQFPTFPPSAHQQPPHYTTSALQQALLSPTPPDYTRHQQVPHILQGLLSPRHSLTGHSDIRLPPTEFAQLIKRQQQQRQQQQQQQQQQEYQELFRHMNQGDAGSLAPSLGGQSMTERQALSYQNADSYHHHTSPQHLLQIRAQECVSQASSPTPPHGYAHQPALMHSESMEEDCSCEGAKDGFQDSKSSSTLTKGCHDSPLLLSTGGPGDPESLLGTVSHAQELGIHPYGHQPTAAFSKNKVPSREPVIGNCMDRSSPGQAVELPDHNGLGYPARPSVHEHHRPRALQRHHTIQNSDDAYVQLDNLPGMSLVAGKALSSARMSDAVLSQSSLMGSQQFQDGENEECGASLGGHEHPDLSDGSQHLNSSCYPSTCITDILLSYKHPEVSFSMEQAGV
140 purified human kinases (Homo sapiens, UniProt Q13882), sequence (Q13882 whole entry): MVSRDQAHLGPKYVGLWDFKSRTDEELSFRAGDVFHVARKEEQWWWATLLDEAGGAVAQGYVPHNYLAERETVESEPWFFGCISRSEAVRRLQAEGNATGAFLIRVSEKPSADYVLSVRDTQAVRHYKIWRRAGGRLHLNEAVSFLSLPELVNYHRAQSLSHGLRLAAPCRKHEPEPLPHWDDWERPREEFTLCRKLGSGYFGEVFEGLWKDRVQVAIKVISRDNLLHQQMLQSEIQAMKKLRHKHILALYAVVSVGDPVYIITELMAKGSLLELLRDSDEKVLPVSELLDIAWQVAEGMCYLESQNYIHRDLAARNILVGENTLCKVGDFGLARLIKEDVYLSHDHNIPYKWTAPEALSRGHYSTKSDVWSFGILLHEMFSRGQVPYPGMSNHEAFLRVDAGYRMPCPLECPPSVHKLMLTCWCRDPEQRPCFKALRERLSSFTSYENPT

CC(=O)[O-].CC(=O)[O-].CC(=O)[O-].CC(=O)[O-].CC(=O)[O-].CC(=O)[O-].[Zn+2].[Zn+2].[Zn+2].c1ccc(-c2csc(NCCN(CCNc3nc(-c4ccccn4)cs3)CCNc3nc(-c4ccccn4)cs3)n2)nc1.c1ccc(-c2csc(NCCN(CCNc3nc(-c4ccccn4)cs3)CCNc3nc(-c4ccccn4)cs3)n2)nc1 [[L2Zn3]6+]
% Inhibition, Mean ([1]; MKK6): 48% | % Inhibition, Run 1 / Run 2 ([1]; MKK6): 59% and 37% | mean % activity ([1]; MKK6): 52% | % activity ([1]; MKK6, duplicate runs): 41% and 63% | % Inhibition, Mean [2]: 16% | mean % activity [2]: 84% | % activity ([2]; duplicate runs): 72% and 95% | % Inhibition, Mean ([3]; DDR2): 19% | % Inhibition, Run 1 / Run 2 ([3]; DDR2): 23% and 15% | mean % activity ([3]; DDR2): 81% | % activity ([3]; DDR2, duplicate runs): 77% and 85% | % Inhibition, Mean [4]: 76% | % Inhibition, Run 1 / Run 2 [4]: 83% and 69% | mean % activity [4]: 24% | % activity ([4]; duplicate runs): 17% and 31% | % Inhibition, Mean [5]: 0.5% | mean % activity [5]: 100% | % activity ([5]; duplicate runs): 92% and 107% | % Inhibition, Mean [6]: 1.8% | mean % activity [6]: 98% | % activity ([6]; duplicate runs): 93% and 103% | % Inhibition, Mean ([7]; PAK6): 27% | mean % activity ([7]; PAK6): 73% | % activity ([7]; PAK6, duplicate runs): 63% and 83% | % Inhibition, Mean ([8]; SIK3): 39% | % Inhibition, Run 1 / Run 2 ([8]; SIK3): 45% and 33% | mean % activity ([8]; SIK3): 61% | % activity ([8]; SIK3, duplicate runs): 55% and 67%

[Cu+2].[Cu+2].[Cu+2].c1ccc(-c2csc(NCCN(CCNc3nc(-c4ccccn4)cs3)CCNc3nc(-c4ccccn4)cs3)n2)nc1.c1ccc(-c2csc(NCCN(CCNc3nc(-c4ccccn4)cs3)CCNc3nc(-c4ccccn4)cs3)n2)nc1 [[L2Cu3]6+]
% Inhibition Run 1 ([1]; MKK6): 75.4% | % Inhibition Run 2 ([1]; MKK6): 83.7% | % Inhibition, Mean ([1]; MKK6): 80% | mean % activity ([1]; MKK6): 20% | % activity ([1]; MKK6, Run 1): 24.6% | % activity ([1]; MKK6, Run 2): 16.3% | % Inhibition Run 1 [2]: 12.7% | % Inhibition Run 2 [2]: -5.2% | % Inhibition, Mean [2]: 3.75% | mean % activity [2]: 96% | % activity ([2]; Run 1): 87.3% | % activity ([2]; Run 2): 105.2% | % Inhibition Run 1 ([3]; DDR2): 21.7% | % Inhibition Run 2 ([3]; DDR2): 11.4% | % Inhibition, Mean ([3]; DDR2): 17% | mean % activity ([3]; DDR2): 83% | % activity ([3]; DDR2, Run 1): 78.3% | % activity ([3]; DDR2, Run 2): 88.6% | % Inhibition Run 1 [4]: 67.9% | % Inhibition Run 2 [4]: 57.6% | % Inhibition, Mean [4]: 63% | mean % activity [4]: 37% | % activity ([4]; Run 1): 32.1% | % activity ([4]; Run 2): 42.4% | % Inhibition Run 1 [5]: 0% | % Inhibition Run 2 [5]: 16.4% | % Inhibition, Mean [5]: 8% | mean % activity [5]: 92% | % activity ([5]; Run 1): 100% | % activity ([5]; Run 2): 83.6% | % Activation, Mean value [6]: 9.5% | % Inhibition Run 1 [6]: -10.1% | % Inhibition Run 2 [6]: -8.9% | % Inhibition, Mean [6]: -9.5% | mean % activity [6]: 110% | % activity ([6]; Run 1): 110.1% | % activity ([6]; Run 2): 108.9% | % Activity Run 1 ([6]; 10 µM): 110.10% | % Activity Run 2 ([6]; 10 µM): 108.90% | % Inhibition Run 1 ([7]; PAK6): 49.1% | % Inhibition Run 2 ([7]; PAK6): 47.9% | % Inhibition, Mean ([7]; PAK6): 49% | mean % activity ([7]; PAK6): 52% | % activity ([7]; PAK6, Run 1): 50.9% | % activity ([7]; PAK6, Run 2): 52.1% | % Inhibition Run 1 ([8]; SIK3): 48.7% | % Inhibition Run 2 ([8]; SIK3): 52.1% | % Inhibition, Mean ([8]; SIK3): 50% | mean % activity ([8]; SIK3): 50% | % activity ([8]; SIK3, Run 1): 51.3% | % activity ([8]; SIK3, Run 2): 47.9%
